{"source": "patent US20210395794A1", "about": "“Antimicrobial Susceptibility Assay and Kit” (The University of Manchester, priority 2018, published 2021)", "key": {"E. coli in UTI samples": {"test_system": "E. coli in UTI samples", "assay": "Flow cytometric antibiotic sensitivity of positive UTI urine samples (Firsway clinic) in Terrific Broth with diS-C3(5)", "format": "cell-based", "set-up": "key: R—resistant; S—sensitive", "details": "antibiotic at nominal 3x MIC", "text": "Initial studies used a Sony SH-800 instrument, but all studies reported here used an Intellicyt® iQue screener PLUS. This instrument is based in significant measure on developments by Sklar and colleagues (e.g. (Edwards et al. 2009; Sklar et al. 2007; Tegos et al. 2014)), and uses segmented flow (Skeggs 1957) to sample from 96- or 384-well U- or V-bottom plates prior to their analysis. The iQue Plus contains three excitation sources (405 nm, 488 nm, 640 nm) and 7 fixed filter detectors (with a midpoint/range in nm of 445/45, 530/30, 572/28, 585/40, 615/24, 675/30, 780/60, giving 13 fluorescence channels) whose outputs are stored as both ‘height’ and area, using the FCS3.0 data file standard (Seamer et al. 1997). Forward and side scatter are obtained from the 488 nm excitation source. Detection channels are referred to by the laser used (405 nm violet VL, 488 nm blue BL, and 640 nm red RL) and the detector number in order of possible detectors with a longer wavelength. Thus RL1, as used for detecting di-S-C3(5), implies the red laser and the 675/30 detector. Data are collected from all channels, using a dynamic range of 7 logs. Many parameters may be used to vary the precise performance of the instrument. Those we found material to provide the best reproducibility and to minimise carryover, and their selected values, are as follows: Automatic prime—60 secs (in Qsol buffer); Pre-plate shake—15 s and 1500 rpm; Sip time—2 s (actual sample uptake); Additional sip time—0.5 s (the gap between sips); Pump speed—29 rpm (1.5 μL·s^−1 sample uptake); Plate model—U-bottom well plate (for 96 well plates); Mid plate cleanup—After every well (4 washes; 0.5 s each in Qsol buffer); Inter-well shake—1500 rpm; after 6 wells, 4 sec in Qsol buffer; Flush and Clean—30 sec with Decon and Clean buffers followed by 60 sec with deionised water. The Forecyt™ software supplied with the instrument may be used to gate and display all the analyses post hoc. It, and the FlowJo software, were used in the preparation of the cytograms shown. Where used, di-S-C3(5) was present at a final concentration of 3 μM; its analysis used excitation at 640 nm and detection at 675±15 nm, the fluorescence channel being referred to as RL1. For DNA analyses, cells were fixed by injection into ice-cold ethanol (final concentration 70%), washed twice by centrifugation in 0.1 M-Tris/HCl buffer, pH 7.4, before resuspension in the same buffer containing mithramycin (50 μg mL^−1) and ethidium bromide (25 μg mL^−1), MgCl2, (25 mM) and NaCl (100 mM) (Boye et al. 1983). […] All the solutions and media used were filtered through 0.2 μm filter.\nSamples were taken at various times during the day, kept at 4° C., delivered to the Manchester laboratory by taxi, plated out (LB agar containing as appropriate the stated antibiotics at 3 times normal MIC) to assess microbial numbers and antibiotic sensitivity, the remaining sample kept again at 4° C., and analysed flow cytometrically within 18 h. For flow cytometric assessment, cells were diluted into 37° C. Terrific Broth containing 3 μM diS-C3(5) plus any appropriate antibiotic, and assayed as above. For other experiments (not shown) cells were filtered (0.45 μm) and diluted as appropriate into warmed terrific broth.\nFinally, we wished to determine whether this method, as developed in laboratory cultures, could be applied to candidate UTI specimens ‘as received’ in a doctor's surgery."}, "E. coli MG1655": {"test_system": "E. coli MG1655", "assay": "Flow cytometric particle counting of proliferation with antibiotic in 20 mins (FIG. 6C)", "format": "cell-based", "details": "sensitive strain E. coli MG1655, Terrific Broth", "text": "Initial studies used a Sony SH-800 instrument, but all studies reported here used an Intellicyt® iQue screener PLUS. This instrument is based in significant measure on developments by Sklar and colleagues (e.g. (Edwards et al. 2009; Sklar et al. 2007; Tegos et al. 2014)), and uses segmented flow (Skeggs 1957) to sample from 96- or 384-well U- or V-bottom plates prior to their analysis. The iQue Plus contains three excitation sources (405 nm, 488 nm, 640 nm) and 7 fixed filter detectors (with a midpoint/range in nm of 445/45, 530/30, 572/28, 585/40, 615/24, 675/30, 780/60, giving 13 fluorescence channels) whose outputs are stored as both ‘height’ and area, using the FCS3.0 data file standard (Seamer et al. 1997). Forward and side scatter are obtained from the 488 nm excitation source. Detection channels are referred to by the laser used (405 nm violet VL, 488 nm blue BL, and 640 nm red RL) and the detector number in order of possible detectors with a longer wavelength. Thus RL1, as used for detecting di-S-C3(5), implies the red laser and the 675/30 detector. Data are collected from all channels, using a dynamic range of 7 logs. Many parameters may be used to vary the precise performance of the instrument. Those we found material to provide the best reproducibility and to minimise carryover, and their selected values, are as follows: Automatic prime—60 secs (in Qsol buffer); Pre-plate shake—15 s and 1500 rpm; Sip time—2 s (actual sample uptake); Additional sip time—0.5 s (the gap between sips); Pump speed—29 rpm (1.5 μL·s^−1 sample uptake); Plate model—U-bottom well plate (for 96 well plates); Mid plate cleanup—After every well (4 washes; 0.5 s each in Qsol buffer); Inter-well shake—1500 rpm; after 6 wells, 4 sec in Qsol buffer; Flush and Clean—30 sec with Decon and Clean buffers followed by 60 sec with deionised water. […] Where used, di-S-C3(5) was present at a final concentration of 3 μM; its analysis used excitation at 640 nm and detection at 675±15 nm, the fluorescence channel being referred to as RL1. […]"}, "[1]": {"details": "UTI sample May 25, 2018 (first listed)"}, "[2]": {"details": "UTI sample May 25, 2018 (second listed)"}}}
{"compound": "CC1(C)S[C@@H]2[C@H](NC(=O)[C@H](N)c3ccccc3)C(=O)N2[C@H]1C(=O)O", "note": "[Ampicillin]", "values": [{"measurement": "Antibiotic sensitivity", "setting": "E. coli in UTI samples; UTI sample Jul. 16, 2018", "result": "R"}, {"measurement": "Antibiotic sensitivity", "setting": "E. coli in UTI samples; UTI sample Jul. 18, 2018", "result": "R"}, {"measurement": "Antibiotic sensitivity", "setting": "E. coli in UTI samples; UTI sample Jul. 20, 2018", "result": "S"}, {"measurement": "Antibiotic sensitivity", "setting": "E. coli in UTI samples; UTI sample Jun. 6, 2018", "result": "R"}, {"measurement": "Antibiotic sensitivity", "setting": "E. coli in UTI samples; [1]", "result": "R"}, {"measurement": "Antibiotic sensitivity", "setting": "E. coli in UTI samples; [2]", "result": "S"}, {"measurement": "Effect on cell proliferation", "setting": "E. coli MG1655", "result": "work effectively"}]}
{"compound": "O=C(O)c1cn(C2CC2)c2cc(N3CCNCC3)c(F)cc2c1=O", "note": "[Ciprofloxacin]", "values": [{"measurement": "Effect on cell proliferation", "setting": "E. coli MG1655", "result": "work effectively"}]}
{"compound": "O=C1CN(/N=C/c2ccc([N+](=O)[O-])o2)C(=O)N1", "note": "[Nitrofurantoin]", "values": [{"measurement": "Antibiotic sensitivity", "setting": "E. coli in UTI samples; UTI sample Jul. 16, 2018", "result": "S"}, {"measurement": "Antibiotic sensitivity", "setting": "E. coli in UTI samples; UTI sample Jul. 18, 2018", "result": "R"}, {"measurement": "Antibiotic sensitivity", "setting": "E. coli in UTI samples; UTI sample Jul. 20, 2018", "result": "S"}, {"measurement": "Antibiotic sensitivity", "setting": "E. coli in UTI samples; UTI sample Jun. 6, 2018", "result": "S"}, {"measurement": "Antibiotic sensitivity", "setting": "E. coli in UTI samples; [1]", "result": "S"}, {"measurement": "Antibiotic sensitivity", "setting": "E. coli in UTI samples; [2]", "result": "S"}]}
{"compound": "COc1cc(Cc2cnc(N)nc2N)cc(OC)c1OC", "note": "[Trimethoprim]", "values": [{"measurement": "Antibiotic sensitivity", "setting": "E. coli in UTI samples; UTI sample Jul. 16, 2018", "result": "S"}, {"measurement": "Antibiotic sensitivity", "setting": "E. coli in UTI samples; UTI sample Jul. 18, 2018", "result": "S"}, {"measurement": "Antibiotic sensitivity", "setting": "E. coli in UTI samples; UTI sample Jul. 20, 2018", "result": "R"}, {"measurement": "Antibiotic sensitivity", "setting": "E. coli in UTI samples; UTI sample Jun. 6, 2018", "result": "S"}, {"measurement": "Antibiotic sensitivity", "setting": "E. coli in UTI samples; [1]", "result": "R"}, {"measurement": "Antibiotic sensitivity", "setting": "E. coli in UTI samples; [2]", "result": "S"}, {"measurement": "Effect on cell proliferation", "setting": "E. coli MG1655", "result": "work effectively"}]}
